According to PubChem BioAssay (NCI):
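Cultured in 96-well plates, cells were exposed to test compound for 48 hours across five concentrations. GI50: concentration for 50% inhibition of growth. At the TGI there is no net growth.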

Legend:
Assay in all cases: inhibition of tumour cell growth, NCI panel, 48 h
KM12 colon = test system: KM12 colon
LOX IMVI melanoma = test system: LOX IMVI melanoma
M14 melanoma = test system: M14 melanoma
MALME-3M melanoma = test system: MALME-3M melanoma
OVCAR-8 ovarian = test system: OVCAR-8 ovarian
RPMI-8226 leukemia = test system: RPMI-8226 leukemia
SK-MEL-5 melanoma = test system: SK-MEL-5 melanoma
SR leukemia = test system: SR leukemia
UACC-62 melanoma = test system: UACC-62 melanoma
HOP-92 NSCLC = test system: HOP-92 NSCLC

SMILES	TGI (KM12 colon) [µM]	TGI (LOX IMVI melanoma) [µM]	TGI (M14 melanoma) [µM]	TGI (MALME-3M melanoma) [µM]	TGI (OVCAR-8 ovarian) [µM]	TGI (RPMI-8226 leukemia) [µM]	TGI (SK-MEL-5 melanoma) [µM]	TGI (SR leukemia) [µM]	TGI (UACC-62 melanoma) [µM]	TGI (HOP-92 NSCLC) [µM]	GI50 (HOP-92 NSCLC) [µM]	GI50 (KM12 colon) [µM]	GI50 (LOX IMVI melanoma) [µM]	GI50 (M14 melanoma) [µM]	GI50 (MALME-3M melanoma) [µM]	GI50 (OVCAR-8 ovarian) [µM]	GI50 (RPMI-8226 leukemia) [µM]	GI50 (SK-MEL-5 melanoma) [µM]	GI50 (UACC-62 melanoma) [µM]
CC12CCC(=O)N1c1cc([N+](=O)[O-])ccc1N2 (configuration not stated)	> 100	> 100	> 100	> 100	> 100	> 100	> 100	> 100	> 100										
Clc1cc(Cl)cc(C2SCc3nc4ccccc4n32)c1 (configuration not stated)	37.3			62.6	33.2	98.4	25.7	> 100	> 100	47.2									
C/C(=N\NC(=O)C[n+]1ccccc1)c1sc(-c2nc(C)c(/C(C)=N/NC(=O)C[n+]3ccccc3)s2)nc1C	> 100	> 100	> 100	> 100	> 100	> 100	> 100		> 100	> 100									
CN(C)C(=O)C(NCCO)c1ccccc1 (configuration not stated)	> 100	> 100	> 100		> 100	59.7	> 100		> 100	> 100									
CCCCCCCCCCCCCCCCCc1cc(Cl)nc(Cl)n1	> 100	> 100	> 100	> 100	> 100	> 100	> 100	> 100	> 100										
O=C1C2=C(C(=O)c3c(O)ccc(O)c31)N(c1cccnc1)Cc1ccccc1O2	5.23	0.56	0.771	0.385	3.43	2.03	2.99		0.396	0.459	0.207	1.33	0.127	0.26	0.164	0.552	0.386	1.33	0.183
O=C1C[C@@H]2[C@@H](C=CC23CC3)N1O	> 100	> 100	> 100	> 100	> 100	> 100	> 100		> 100										
Cc1cc(Cl)ccc1NC(=O)C1C(=O)C(=O)N(c2ccc(Cl)cc2C)C1=O (configuration not stated)		> 100	> 100	> 100	> 100	> 100	> 100		> 100	54.2									
CC(=O)O[C@H]1CC[C@@]2(C)C(=CC[C@@H]3C2CC[C@]2(C)C(=O)NC(=O)CC32)C1 (some centres not stated)	> 100	> 100	> 100	> 100	> 100		> 100		> 100	> 100									
CCOc1cccc2sc(N)nc12	> 100	> 100	> 100	> 100	> 100	> 100	> 100		> 100	> 100									
CN1C(=O)C(C)(C)NS1(=O)=O	> 100	> 100	> 100	> 100	> 100	> 100	> 100		> 100										
